Results from patent US20090054319A1, “Methods and Compositions for the Treatment of Hypertension and Gastrointestinal Disorders” (MICROBIA, INC., priority 2005, published 2009).
Bridges are numbered along the chain shown (N, C = ends). Where no end group is shown, it is not given here.

Columns and labels:
chymotrypsin [1] = settings: cited from earlier work
chymotrypsin [2] = molecular target: T1, chymotrypsin (Bos taurus, UniProt P00766, DEL14-15/DEL147-148); assay: T84 cGMP assay to assess guanylin activity after a chymotrypsin digestion assay (guanylin degradation assay); assay type: biochemical, bovine; settings: T84 cells, FIG. 1
T1 construct: purchased Sigma C6423
Protocol: Since guanylin is susceptible to digestion by chymotrypsin, chymotrypsin activity can be assayed based on guanylin cleavage. […] From this stock, six (6) 500 μl aliquots were prepared in 2 ml Eppendorf tubes and labeled “Control”, “T0”, “T15”, “T30”, “T60”, and “T180”, with “T_” representing timepoints, in minutes. 5 μl of a 10 mM chymostatin (Sigma, C7268) stock (5 mg of chymostatin resuspended in 824 μl of DMSO) was added to the “Control” samples and all samples were incubated for 5 minutes at 30° C. Chymostatin inhibits chymotrypsin activity and this sample served as a negative control. Next, 20 μl of a chymotrypsin (Sigma, C6423) enzyme solution (0.01 mg/ml bovine chymotrypsin enzyme in 1 mM HCl, 2 mM Calcium Chloride) were added to the samples and mixed by inversion. Samples are incubated at 30° C. […] Determination of sensitivity to digestion by chymotrypsin was determined by LCMS analysis and by in vitro activity in the T84 cGMP assays described below.
The ability of guanylin to activate the intestinal GC-C receptor was assessed in an assay employing the T84 human colon carcinoma cell line (American Type Culture Collection (Bethesda, Md.). For the assays cells were grown to confluency in 24-well culture plates with a 1:1 mixture of Ham's F12 medium and Dulbecco's modified Eagle's medium (DMEM), supplemented with 5% fetal calf serum and were used at between passages 54 and 60. […]

[3] = tested on: intestinal fluid secretion; settings: suckling mouse model; Santos-Neto et al 2003 Pharm & Toxicol 92:114; cited from earlier work

## CC(C)C[C@H](NC(=O)[C@@H](NC(=O)N[C@@H](Cc1ccccc1)C(=O)O)C1CCNC(=N)N1)C(=O)N[C@H](C=O)Cc1ccccc1 (stereo partly drawn) [chymostatin, N—(Na-Carbonyl-[S,S]-a-(2-Iminohexahydro-4-pyrimidyl)glycine)-X-Phe-al)-Phe where X is Leu, Val or Ile]
Chymotrypsin [1]
  chymotrypsin-mediated inactivation of guanylin: can be prevented
Chymotrypsin [2]; chymostatin present during chymotrypsin digestion of guanylin
  guanylin stimulated cGMP activity when chymotrypsin inhibitor present: retained
[3]
  guanylin-induced intestinal fluid secretion: required in order to observe guanylin-induced intestinal fluid secretion

## bovine chymotrypsin enzyme (Sigma, C6423)
Guanylin (Sigma, G-116)
  guanylin degradation assay: loss of guanylin-stimulated cGMP activity and LC/MS of guanylin processing: guanylin stimulated cGMP activity decreases over time in the presence of chymotrypsin

## guanylin: intestinal peptide that stimulates chloride secretion; mature protein has 15 amino acids; agonist of the GC-C receptor (PGTCEICAYAACTGC; disulfide 4-12, 7-15; UniProt Q02747 101-115, looked up)
Chymotrypsin [1]; Greenberg et al. J Investig Med 45:276-82, 1997
  cleavage of guanylin by chymotrypsin: chymotrypsin can cleave guanylin
Chymotrypsin [2]; in the presence of chymotrypsin, timepoints 0-180 min at 30° C.
  guanylin stimulated cGMP activity: decreases over time
